In data set [1] the target is Proto-oncogene tyrosine-protein kinase ROS (Homo sapiens) (UniProt P08922). Briefly: Inhibition of wild-type human partial length ROS1 (A1921 to N2240 residues) expressed in bacterial expression system assessed as residual activity at 1 uM by Kinomescan method relative to control.
The target of data set [2] is Aurora kinase A (Homo sapiens) (UniProt O14965). Nature of the data set: Inhibition of wild-type human partial length AURKA (E122 to K401 residues) expressed in mammalian expression system assessed as residual activity at 1 uM by Kinomescan method relative to control.
Data set [3] concerns the target MAP kinase-activated protein kinase 3 (Homo sapiens) (UniProt Q16644). Briefly: Inhibition of human MAPKAPK3 assessed as residual activity at 1 uM by Kinomescan method relative to control.
A further data set is filed under the species Homo sapiens. Nature of the data set: Inhibition of wild-type human full length CDK9 (M1 to F372 residues)/cyclin T1 expressed in bacterial expression system assessed as residual activity at 1 uM by Kinomescan method relative to control.
The target of data set [4] is Ephrin type-A receptor 2 (Homo sapiens) (UniProt P29317). Briefly: Inhibition of wild type human partial length EPHA2 (T593 to V891 residues) expressed in bacterial expression system assessed as residual activity at 1 uM by Kinomescan method relative to control.
Data set [5] concerns the target Inhibitor of nuclear factor kappa-B kinase subunit epsilon (Homo sapiens) (UniProt Q14164). Nature of the data set: Inhibition of wild-type human full length IKK-epsilon (M1 to V716 residues) expressed in mammalian expression system assessed as residual activity at 1 uM by Kinomescan method relative to control.
Data set [6] has as its target Myosin light chain kinase (Homo sapiens) (UniProt Q32MK0). Briefly: Inhibition of MYLK3 (unknown origin) assessed as residual activity at 1 uM by Kinomescan method relative to control.
For data set [7], the target named is T1, Mitogen-activated protein kinase kinase kinase kinase 3 (Homo sapiens) (UniProt Q8IVH8).
T1 sequence (whole entry): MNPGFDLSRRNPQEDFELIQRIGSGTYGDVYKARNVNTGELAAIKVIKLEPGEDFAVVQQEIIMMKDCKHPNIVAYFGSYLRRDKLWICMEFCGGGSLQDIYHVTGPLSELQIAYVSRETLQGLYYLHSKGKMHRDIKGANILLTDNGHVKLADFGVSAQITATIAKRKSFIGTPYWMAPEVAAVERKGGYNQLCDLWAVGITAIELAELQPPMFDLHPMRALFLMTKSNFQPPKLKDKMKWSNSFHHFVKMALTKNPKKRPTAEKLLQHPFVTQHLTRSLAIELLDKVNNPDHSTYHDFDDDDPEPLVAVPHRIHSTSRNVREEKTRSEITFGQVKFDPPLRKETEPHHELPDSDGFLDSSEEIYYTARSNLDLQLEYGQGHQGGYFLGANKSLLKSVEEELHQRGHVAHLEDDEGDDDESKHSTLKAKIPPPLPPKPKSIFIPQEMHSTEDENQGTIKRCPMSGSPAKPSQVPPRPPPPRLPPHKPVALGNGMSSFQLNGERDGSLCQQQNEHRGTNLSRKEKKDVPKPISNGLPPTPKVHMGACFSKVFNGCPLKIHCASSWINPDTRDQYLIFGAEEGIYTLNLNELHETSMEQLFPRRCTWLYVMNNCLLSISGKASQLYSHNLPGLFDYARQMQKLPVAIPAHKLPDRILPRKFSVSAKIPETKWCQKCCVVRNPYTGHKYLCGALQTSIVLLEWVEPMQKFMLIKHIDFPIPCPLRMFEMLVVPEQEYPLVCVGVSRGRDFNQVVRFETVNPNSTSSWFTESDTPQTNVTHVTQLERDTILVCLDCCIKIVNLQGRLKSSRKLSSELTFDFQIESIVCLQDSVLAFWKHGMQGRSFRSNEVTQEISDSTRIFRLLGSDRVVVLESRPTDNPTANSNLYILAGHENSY
Nature of the data set: Inhibition of wild-type human partial length MAP4K3 (M1 to D301 residues) expressed in bacterial expression system assessed as residual activity at 1 uM by Kinomescan method relative to control.

The target in data set [8] is Casein kinase I isoform alpha-like (Homo sapiens) (UniProt Q8N752). Nature of the data set: Inhibition of CK1a1L (unknown origin) assessed as residual activity at 1 uM by Kinomescan method relative to control.
The target in data set [9] is Tyrosine-protein kinase JAK1 (Homo sapiens) (UniProt P23458). Briefly: Inhibition of wild-type human partial length JAK1 JH2 pseudokinase domain (R537 to D855 residues) expressed in mammalian expression system assessed as residual activity at 1 uM by Kinomescan method relative to control.
The nature of data set [10]: In vivo inhibition of LRRK2 in Han-Wistar rat assessed as reduction in Ser935 phosphorylation in brain at 10 mg/kg, po by Western blot analysis. It counts as functional. Also noted: scale not given: the % may be the effect or the level left.
Data set [11] has as its target MAP kinase-interacting serine/threonine-protein kinase 2 (Homo sapiens) (UniProt Q9HBH9). Nature of the data set: Inhibition of MNK2 (unknown origin) assessed as residual activity at 1 uM by Kinomescan method relative to control.
Data set [12] has as its target Protein kinase C epsilon type (Homo sapiens) (UniProt Q02156). Nature of the data set: Inhibition of PKCepsilon (unknown origin) assessed as residual activity at 1 uM by Kinomescan method relative to control.
Data set [13] is described as follows: Artificial membrane permeability by PAMPA method. The format is ADME. Conditions: read-out: permeability.
In data set [14] the target is Dual specificity protein kinase CLK1 (Homo sapiens) (UniProt P49759). Briefly: Inhibition of wild-type human full length CLK1 (M1 to I484 residues) expressed in bacterial expression system assessed as residual activity at 1 uM by Kinomescan method relative to control.
Data set [15] addresses Ephrin type-A receptor 8 (Homo sapiens) (UniProt P29322). Briefly: Inhibition of human wild type partial length EPHA8 (Q608 to C920 residues) expressed in bacterial expression system assessed as residual activity at 1 uM by Kinomescan method relative to control.
Data set [16] deals with Activin receptor type-1 (Homo sapiens) (UniProt Q04771). Nature of the data set: Inhibition of human wild type partial length ACVR1 (C188 to C509 residues) expressed in bacterial expression system assessed as residual activity at 1 uM by Kinomescan method relative to control.
Data set [17] is described as follows: Ratio of total drug concentration in brain to blood in Han-Wistar rat at 10 mg/kg, po. The format is ADME, organism-based.
In data set [18] the target is Serine/threonine-protein kinase PAK 2 (Homo sapiens) (UniProt Q13177). Nature of the data set: Inhibition of wild-type human partial length PAK2 (P151 to R525 residues) expressed in bacterial expression system assessed as residual activity at 1 uM by Kinomescan method relative to control.
Data set [19] concerns the target Homeodomain-interacting protein kinase 4 (Homo sapiens) (UniProt Q8NE63). Nature of the data set: Inhibition of wild-type human partial length HIPK4 (M1 to V384 residues) expressed in bacterial expression system assessed as residual activity at 1 uM by Kinomescan method relative to control.
The target in data set [20] is RAC-gamma serine/threonine-protein kinase (Homo sapiens) (UniProt Q9Y243). Nature of the data set: Inhibition of wild-type human partial length AKT3 expressed in bacterial expression system assessed as residual activity at 1 uM by Kinomescan method relative to control.
Data set [21] concerns the target Tyrosine-protein kinase Lyn (Homo sapiens) (UniProt P07948). Nature of the data set: Inhibition of human LYN B assessed as residual activity at 1 uM by Kinomescan method relative to control.

The record followed here is ChEMBL document CHEMBL4715821, “Discovery of 4-ethoxy-7H-pyrrolo[2,3-d]pyrimidin-2-amines as potent, selective and orally bioavailable LRRK2 inhibitors” (Bioorg Med Chem Lett, 2018).

The structures appear in SMILES notation.

Sequence of Tyrosine-protein kinase JAK1 (Homo sapiens) (P23458 whole entry, the tested form may be a part): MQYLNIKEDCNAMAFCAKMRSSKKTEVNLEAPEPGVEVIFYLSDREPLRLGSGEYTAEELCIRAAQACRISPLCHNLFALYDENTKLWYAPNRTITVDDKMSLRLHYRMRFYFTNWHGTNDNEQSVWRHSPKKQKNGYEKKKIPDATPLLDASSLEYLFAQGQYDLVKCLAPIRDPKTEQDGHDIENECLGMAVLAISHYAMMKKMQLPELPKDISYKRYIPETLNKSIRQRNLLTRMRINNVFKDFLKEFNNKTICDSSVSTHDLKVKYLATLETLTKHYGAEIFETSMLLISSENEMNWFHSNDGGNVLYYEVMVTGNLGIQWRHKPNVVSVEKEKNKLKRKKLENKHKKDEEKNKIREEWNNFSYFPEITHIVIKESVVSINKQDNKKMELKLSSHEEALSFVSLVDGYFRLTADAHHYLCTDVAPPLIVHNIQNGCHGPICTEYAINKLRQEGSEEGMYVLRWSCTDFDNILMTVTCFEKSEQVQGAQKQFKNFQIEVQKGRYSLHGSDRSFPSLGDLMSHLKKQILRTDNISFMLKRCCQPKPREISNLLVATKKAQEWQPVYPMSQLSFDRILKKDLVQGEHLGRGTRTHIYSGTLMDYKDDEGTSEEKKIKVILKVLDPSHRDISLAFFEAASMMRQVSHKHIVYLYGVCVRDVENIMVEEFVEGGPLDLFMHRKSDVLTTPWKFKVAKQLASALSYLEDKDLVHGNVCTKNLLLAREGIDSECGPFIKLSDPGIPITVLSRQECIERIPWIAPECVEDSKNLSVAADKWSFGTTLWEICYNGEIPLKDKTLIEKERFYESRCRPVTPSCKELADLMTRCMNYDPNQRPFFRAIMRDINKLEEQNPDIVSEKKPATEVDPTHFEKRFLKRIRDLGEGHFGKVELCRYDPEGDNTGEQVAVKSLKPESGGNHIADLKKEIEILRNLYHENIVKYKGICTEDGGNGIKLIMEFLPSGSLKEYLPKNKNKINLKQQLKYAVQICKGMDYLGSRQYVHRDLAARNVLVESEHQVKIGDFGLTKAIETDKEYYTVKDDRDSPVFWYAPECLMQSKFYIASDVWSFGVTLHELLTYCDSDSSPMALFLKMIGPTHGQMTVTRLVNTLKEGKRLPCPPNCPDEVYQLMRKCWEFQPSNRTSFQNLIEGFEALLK
Sequence of Tyrosine-protein kinase Lyn (Homo sapiens) (P07948 2-512 limits assumed): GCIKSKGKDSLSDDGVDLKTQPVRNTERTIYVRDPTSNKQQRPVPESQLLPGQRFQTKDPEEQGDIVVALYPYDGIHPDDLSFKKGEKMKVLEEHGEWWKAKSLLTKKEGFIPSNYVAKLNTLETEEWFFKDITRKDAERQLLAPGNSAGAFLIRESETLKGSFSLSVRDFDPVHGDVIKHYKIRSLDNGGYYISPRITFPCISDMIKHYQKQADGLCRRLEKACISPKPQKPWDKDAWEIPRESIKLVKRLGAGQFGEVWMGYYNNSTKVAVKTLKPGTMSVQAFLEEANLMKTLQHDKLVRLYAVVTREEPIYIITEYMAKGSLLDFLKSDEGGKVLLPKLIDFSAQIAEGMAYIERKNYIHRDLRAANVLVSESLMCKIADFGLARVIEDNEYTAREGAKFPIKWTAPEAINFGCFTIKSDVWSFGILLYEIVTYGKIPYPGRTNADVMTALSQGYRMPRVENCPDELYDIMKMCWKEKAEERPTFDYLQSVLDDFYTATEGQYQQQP
Sequence of Homeodomain-interacting protein kinase 4 (Homo sapiens) (Q8NE63 whole entry, the tested form may be a part): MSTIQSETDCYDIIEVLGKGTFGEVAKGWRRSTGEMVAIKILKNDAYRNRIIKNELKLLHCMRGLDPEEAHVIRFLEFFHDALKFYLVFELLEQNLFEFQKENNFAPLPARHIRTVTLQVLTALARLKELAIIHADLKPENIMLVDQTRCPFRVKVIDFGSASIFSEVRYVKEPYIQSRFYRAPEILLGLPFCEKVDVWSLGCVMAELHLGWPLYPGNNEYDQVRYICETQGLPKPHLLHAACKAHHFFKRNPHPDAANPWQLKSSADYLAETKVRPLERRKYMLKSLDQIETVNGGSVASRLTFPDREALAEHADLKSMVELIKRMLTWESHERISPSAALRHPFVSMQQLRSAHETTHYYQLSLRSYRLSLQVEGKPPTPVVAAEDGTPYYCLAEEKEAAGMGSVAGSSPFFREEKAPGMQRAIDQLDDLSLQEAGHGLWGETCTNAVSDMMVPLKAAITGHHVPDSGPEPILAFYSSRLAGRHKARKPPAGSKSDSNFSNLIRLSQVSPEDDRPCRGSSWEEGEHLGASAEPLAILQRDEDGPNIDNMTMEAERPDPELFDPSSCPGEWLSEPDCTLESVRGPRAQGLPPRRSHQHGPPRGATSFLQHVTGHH
Sequence of Myosin light chain kinase (Homo sapiens) (Q32MK0 whole entry): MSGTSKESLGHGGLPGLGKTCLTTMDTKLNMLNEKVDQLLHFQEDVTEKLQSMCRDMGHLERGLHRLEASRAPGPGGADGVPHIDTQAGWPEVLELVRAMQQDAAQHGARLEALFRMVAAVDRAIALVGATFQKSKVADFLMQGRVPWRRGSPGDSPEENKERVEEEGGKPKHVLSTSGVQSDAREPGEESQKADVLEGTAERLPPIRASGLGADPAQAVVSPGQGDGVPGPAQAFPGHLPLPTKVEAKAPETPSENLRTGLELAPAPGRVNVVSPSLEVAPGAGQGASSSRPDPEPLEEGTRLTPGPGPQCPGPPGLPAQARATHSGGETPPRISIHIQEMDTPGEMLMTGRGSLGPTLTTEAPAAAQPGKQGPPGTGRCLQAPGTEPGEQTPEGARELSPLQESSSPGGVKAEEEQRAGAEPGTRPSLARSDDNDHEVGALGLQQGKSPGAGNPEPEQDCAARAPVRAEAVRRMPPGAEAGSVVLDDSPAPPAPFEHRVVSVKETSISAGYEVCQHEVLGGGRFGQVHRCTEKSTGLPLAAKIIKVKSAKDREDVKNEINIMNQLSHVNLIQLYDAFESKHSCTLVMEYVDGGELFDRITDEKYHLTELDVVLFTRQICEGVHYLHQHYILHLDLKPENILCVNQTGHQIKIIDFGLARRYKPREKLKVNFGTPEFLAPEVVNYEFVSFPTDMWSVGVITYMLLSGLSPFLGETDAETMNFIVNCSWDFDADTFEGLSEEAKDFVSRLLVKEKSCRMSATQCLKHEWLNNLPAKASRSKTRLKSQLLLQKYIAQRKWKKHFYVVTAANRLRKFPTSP
Sequence of Serine/threonine-protein kinase PAK 2 (Homo sapiens) (Q13177 whole entry, the tested form may be a part): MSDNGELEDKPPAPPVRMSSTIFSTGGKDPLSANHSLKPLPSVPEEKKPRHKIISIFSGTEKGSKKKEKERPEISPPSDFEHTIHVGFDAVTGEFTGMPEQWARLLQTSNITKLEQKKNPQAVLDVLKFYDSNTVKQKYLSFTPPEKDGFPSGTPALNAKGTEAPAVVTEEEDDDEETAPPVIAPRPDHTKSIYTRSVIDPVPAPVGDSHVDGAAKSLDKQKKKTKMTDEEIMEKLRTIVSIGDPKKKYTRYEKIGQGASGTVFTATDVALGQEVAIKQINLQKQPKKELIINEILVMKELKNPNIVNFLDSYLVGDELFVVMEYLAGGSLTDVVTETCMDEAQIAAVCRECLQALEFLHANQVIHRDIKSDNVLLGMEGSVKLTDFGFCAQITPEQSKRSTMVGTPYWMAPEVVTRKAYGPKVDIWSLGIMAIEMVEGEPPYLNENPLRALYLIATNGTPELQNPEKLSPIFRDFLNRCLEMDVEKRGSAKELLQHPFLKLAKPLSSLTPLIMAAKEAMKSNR
Sequence of Ephrin type-A receptor 8 (Homo sapiens) (P29322 whole entry, the tested form may be a part): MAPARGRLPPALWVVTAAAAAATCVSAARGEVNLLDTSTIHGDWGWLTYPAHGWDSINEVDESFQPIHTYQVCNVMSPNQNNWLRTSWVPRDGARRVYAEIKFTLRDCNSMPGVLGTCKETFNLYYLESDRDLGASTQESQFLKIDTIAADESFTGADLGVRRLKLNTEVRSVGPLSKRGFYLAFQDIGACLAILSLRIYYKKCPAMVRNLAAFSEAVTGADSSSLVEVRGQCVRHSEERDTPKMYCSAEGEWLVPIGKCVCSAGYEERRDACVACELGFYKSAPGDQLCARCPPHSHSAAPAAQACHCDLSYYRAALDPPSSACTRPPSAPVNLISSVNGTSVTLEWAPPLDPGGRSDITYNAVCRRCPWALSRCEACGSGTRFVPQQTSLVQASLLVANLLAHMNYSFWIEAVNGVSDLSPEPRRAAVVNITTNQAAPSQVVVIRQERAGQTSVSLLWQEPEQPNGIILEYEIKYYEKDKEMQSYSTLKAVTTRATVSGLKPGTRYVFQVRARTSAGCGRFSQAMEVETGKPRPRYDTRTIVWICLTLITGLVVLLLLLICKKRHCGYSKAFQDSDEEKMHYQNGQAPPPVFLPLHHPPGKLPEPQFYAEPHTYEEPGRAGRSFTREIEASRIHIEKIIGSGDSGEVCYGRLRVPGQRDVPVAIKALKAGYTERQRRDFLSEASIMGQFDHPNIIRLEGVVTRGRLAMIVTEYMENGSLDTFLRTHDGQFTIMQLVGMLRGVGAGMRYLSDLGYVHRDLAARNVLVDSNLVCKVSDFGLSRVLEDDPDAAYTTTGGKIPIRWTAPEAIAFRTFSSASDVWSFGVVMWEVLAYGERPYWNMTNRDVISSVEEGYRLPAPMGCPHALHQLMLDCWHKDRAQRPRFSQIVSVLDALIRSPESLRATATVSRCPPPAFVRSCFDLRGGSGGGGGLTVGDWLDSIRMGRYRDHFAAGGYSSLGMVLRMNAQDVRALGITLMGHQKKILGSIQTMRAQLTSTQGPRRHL
Sequence of Casein kinase I isoform alpha-like (Homo sapiens) (Q8N752 whole entry, the tested form may be a part, canonical isoform): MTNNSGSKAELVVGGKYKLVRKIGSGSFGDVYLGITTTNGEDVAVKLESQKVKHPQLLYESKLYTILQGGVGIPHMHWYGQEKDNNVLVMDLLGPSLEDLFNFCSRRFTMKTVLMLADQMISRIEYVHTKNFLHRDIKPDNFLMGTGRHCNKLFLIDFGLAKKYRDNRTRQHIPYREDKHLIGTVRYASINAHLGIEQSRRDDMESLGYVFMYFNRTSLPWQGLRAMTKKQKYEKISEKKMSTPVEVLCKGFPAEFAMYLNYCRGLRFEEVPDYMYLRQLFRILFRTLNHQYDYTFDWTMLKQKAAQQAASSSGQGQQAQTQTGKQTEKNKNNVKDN

Turning to `CCOc1nc(Nc2ccc(C(=O)N3CCOCC3)cc2OC)nc2[nH]ccc12`, the Activity in data set [1] came out at 52.5%; in data set [2], 94.8%; in [3], 101%; in the data set listed under Homo sapiens, 91.6%; in data set [4], 106%; in data set [5], 88.8%. Further, the Activity in data set [6] came to 96.9%; in data set [7], 88.9%; in data set [8], 95%; in data set [9] it was 97.3%; in data set [10], 20%; in data set [11], 102%. Also, the Activity was found to be 95% in data set [12]; 37.4% in data set [14]; 94.4% in data set [15]; 108% in data set [16]; 95.3% in [18]; 101% in [19]. The Activity in data set [20] was 98.8%; in data set [21], 97.5%. The Papp in [13] was 48 ×10⁻⁶ cm/s. Also, the Kp in [17] worked out at 0.24.
